According to publication PMC12059368 (Biomolecules & Therapeutics, 2024):
Where two headings read alike, the source gives them in different places. Each block holds one compound with its values, some of them ahead of it.

Assays:
[1] = ref Popiolek et al., 2021; cited from earlier work
APAP-induced ALI rats = assay: Biochemical profile and tissue microscopy in APAP-induced ALI rats; type: in vivo, Sprague-Dawley rats
CYP3A1/2 = assay: Immunoblot of hepatic microsomes, CYP3A1/2; type: in vivo, rat; settings: RVT rats
[2] = ref Bannwarth et al., 2013, Dowty et al., 2014; cited from earlier work
[3] = In vitro metabolism of tofacitinib; type: in vitro ADME, rat; settings: hepatic microsomes
[4] = intestinal microsomes, CON, RVT, ALI
[5] = Rat plasma protein binding of tofacitinib; type: in vitro ADME; settings: for fraction unbound at 5 µg/mL: Sprague-Dawley, rat, plasma, Plasma protein binding
in vivo = settings: Sprague-Dawley, rat, plasma, iv, 10 mg/kg, CON rats (control)
[6] = iv 10 mg/kg
[7] = RVT 50 mg/kg ip, ALI-RVT vs ALI rats, plasma
[8] = oral 20 mg/kg, ALI rats (APAP 400 mg/kg ip)
[9] = oral 20 mg/kg, ALI-RVT rats (RVT 50 mg/kg ip 1.5 h before APAP)
[10] = oral 20 mg/kg, ALI-RVT vs ALI rats
[11] = oral 20 mg/kg, CON rats (control)
[12] = oral 20 mg/kg, RVT rats (RVT 50 mg/kg ip)
[13] = ALI-RVT rats (RVT 50 mg/kg ip 1.5 h before APAP)

SMILES: CC(=O)Nc1ccc(O)cc1 [APAP, Acetaminophen]
Safe dose [1]: up to 2,000 mg per day

CYP3A expression following RVT administration (CYP3A1/2): slightly decreased
SMILES: Oc1ccc(/C=C/c2cc(O)cc(O)c2)cc1 [RVT, Resveratrol]
Liver and kidney histology (APAP-induced ALI rats; RVT 50 mg/kg ip, ALI-RVT rats): alleviated tissue damage
Decrease in GOT (APAP-induced ALI rats; [7]): 35.1%
Increase in total protein (APAP-induced ALI rats; [7]): 4.50%
Glutamate oxaloacetate transaminase levels (APAP-induced ALI rats; RVT administration in ALI rats): normalized

CLint lower than in CON rats ([3]; ALI rats): 69.6%
CLint as % of CON values ([3]; ALI-RVT rats): 93.1%
Km values, comparison across all groups ([3]; CON, RVT, ALI, ALI-RVT): remained consistent
F values, comparison across the four groups (CON, RVT, ALI, ALI-RVT rats): similar
Ae0-24 h (drug excreted unchanged in urine for 24 h) [8]: 3.04 ± 1.74 % of dose
GI24 h (drug remaining in the gastrointestinal tract at 24 h) [8]: 0.743 ± 0.917 % of dose
Decrease in CLR (oral 20 mg/kg, ALI vs CON rats): 76.4%
Increase in AUC (oral 20 mg/kg, ALI vs CON rats, 20 mg/kg): 181%
Ae0-24 h (drug excreted unchanged in urine for 24 h) [9]: 6.41 ± 1.86 % of dose
GI24 h (drug remaining in the gastrointestinal tract at 24 h) [9]: 0.467 ± 0.243 % of dose
Decrease in AUC [10]: 41.4%
Increase in CLR [10]: 211%
Ae0-24 h (drug excreted unchanged in urine for 24 h) [11]: 4.72 ± 2.03 % of dose
GI24 h (drug remaining in the gastrointestinal tract at 24 h) [11]: 0.791 ± 1.06 % of dose
Ae0-24 h (drug excreted unchanged in urine for 24 h) [12]: 3.96 ± 2.11 % of dose
GI24 h (drug remaining in the gastrointestinal tract at 24 h) [12]: 0.295 ± 0.0618 % of dose
GI24 h values (oral, both CON and ALI rats): less than 0.791 % of the oral dose
Vmax, Km, and CLint, comparison across the four groups [4]: no significant differences
recovery at 30 min, 5 µg/mL ([5]; PBS in Nanosep 10 K centrifugal filter unit (no plasma), pH 7.4): 99.7 ± 2.51%
fraction unbound at 5 µg/mL ([5]; plasma of ALI rats): 0.358
fraction unbound at 5 µg/mL ([5]; plasma of CON rats): 0.363
fraction unbound at 5 µg/mL ([5]; plasma of RVT rats): 0.349
AUC (in vivo): 4070 ng·h/mL
Ae0-24 h (drug excreted unchanged in urine for 24 h) ([6]; ALI rats (APAP 400 mg/kg ip)): 4.26 ± 2.87 % of dose
GI24 h (drug remaining in the gastrointestinal tract at 24 h) ([6]; ALI rats (APAP 400 mg/kg ip)): 0.134 ± 0.0339 % of dose
Increase in AUC ([6]; ALI vs CON rats): 207%
Increase in terminal half-life ([6]; ALI vs CON rats): 113%
Reduction in CL ([6]; ALI vs CON rats): 64.7%
Reduction in CLNR ([6]; ALI vs CON rats): 66.1%
Ae0-24 h (drug excreted unchanged in urine for 24 h) [6, 13]: 9.25 ± 3.62 % of dose
GI24 h (drug remaining in the gastrointestinal tract at 24 h) [6, 13]: 0.115 ± 0.0493 % of dose
Increase in Ae0-24 h ([6]; ALI-RVT vs ALI rats): 117%
Increase in CL ([6]; ALI-RVT vs ALI rats): 142%
Increase in CLNR ([6]; ALI-RVT vs ALI rats): 141%
Increase in CLR ([6]; ALI-RVT vs ALI rats): 398%
Reduction in AUC ([6]; ALI-RVT vs ALI rats): 62.0%
Shorter terminal half-life ([6]; ALI-RVT vs ALI rats): 38.0%
Ae0-24 h (drug excreted unchanged in urine for 24 h) ([6]; CON rats (control)): 5.30 ± 1.91 % of dose
GI24 h (drug remaining in the gastrointestinal tract at 24 h) ([6]; CON rats (control)): 0.108 ± 0.0444 % of dose
Ae0-24 h (drug excreted unchanged in urine for 24 h) ([6]; RVT rats (RVT 50 mg/kg ip)): 7.31 ± 3.12 % of dose
GI24 h (drug remaining in the gastrointestinal tract at 24 h) ([6]; RVT rats (RVT 50 mg/kg ip)): 0.147 ± 0.00805 % of dose
SMILES: C[C@@H]1CCN(C(=O)CC#N)C[C@@H]1N(C)c1ncnc2[nH]ccc12 [tofacitinib, Tofacitinib]
Fraction of the oral dose metabolized by hepatic CYP3A4 and CYP2C19 [2]: Approximately 70%
